The nature of data set [1]: Stability test in liver microsomes (mouse). The data set is classed as in vitro ADME. The conditions noted are these: mouse liver microsomes, 1 μM compound, 30 min. The source says: (§1) Example 5 Stability Test in Liver Microsomes
(§2) Both male CD-1 mouse pooled liver microsomes and male SD rat pooled liver microsomes were purchased from BioreclamationIVT Corporation, USA.
(§3) Phenacetin, glucose-6-phosphate dehydrogenase (G-6-PDH) and nicotinamide adenine dinucleotide phosphate (NADP) were all purchased from Sigma-Aldrich Corporation, USA. Glucose-6-phosphate (G-6-P) was purchased from Shanghai Eybridge Chemical Technology Co., Ltd.
(§4) Ten mM test compound stock solution: a certain amount of test compound was weighed, and dissolved with an appropriate volume of DMSO to prepare a stock solution with a concentration of 10 mM for use.
(§5) Reaction stopping solution: an appropriate amount of internal standard compound phenacetin was dissolved in acetonitrile to prepare a reaction stopping solution with a concentration of 1000 ng/mL for use at room temperature.
(§6) The test compound stock solution was diluted with an organic solvent (usually a mixture of acetonitrile, methanol and water with various ratios, depending on the solubility of the compound, if necessary, 1 N hydrochloric acid or 1 N sodium hydroxide would be added to facilitate solubilization) to the 0.1 mM (the final concentration of the compound in the reaction system was 1 μM) and the concentration percentage of the organic solvents in the incubation system no more than 1% (wherein the percentage of DMSO was required to be no more than 0.1%). An appropriate amount of 100 mM NADP, 500 mM G-6-P and 100 Unit/mL G-6-PDH were mixed and diluted with ultrapure water (the final system contains 1 mM NADP, 5 mM G-6-P and 1 Unit/mL G-6-PDH), pre-incubated in a 37° C. water bath for 10 minutes and then placed on ice for use as a NADPH regeneration solution. 20 mg/mL liver microsomes solution and 200 mM phosphate buffer was mixed, and diluted with ultrapure water to give a liver microsomes solution containing 2.5 mg/mL liver microsomes (the final concentration of the reaction system is 0.5 mg/mL) and 50 mM phosphate buffer. The diluted liver microsomes solution was mixed with 0.1 mM compound solution, a mixture of 100 mM EDTA, 300 mM MgCl2 solution, 200 mM phosphate buffer (the final system was 3 mM MgCl2, 1 mM EDTA and 50 mM phosphate buffer) and water in an appropriate volume was added. Finally, the NADPH regeneration solution was added, then the reaction solution was placed in a 37° C. water bath to start the reaction (the reaction time was 30 minutes), and the reaction was stopped by adding the ice-cold acetonitrile reaction stopping solution containing the internal standard. The 0-minute sample was not incubated in a 37° C. water bath, and its difference from the 30-minute sample further lies in that the ice-cold acetonitrile reaction stopping solution containing the internal standard was added first, and then the NADPH regeneration solution was added. The sample added with the reaction stopping internal standard solution was vortexed and mixed well, and then centrifuged at 4400 rpm for 10 minutes. The supernatant was taken and diluted ten times with 50% methanol for LC-MS/MS analysis.
(§7) LC-MS/MS was used to determine the concentration of the compound in the sample. The percentage of the remaining compound after 30 minutes of incubation comparing with that in the 0-minute sample was calculated using the peak area ratio of the compound to the internal standard as an indicator, to evaluate the metabolic stability of the compound.
(§8) Instrument: API4500, API4000 or LTQ Mass Spectrometer; the liquid phase is UHPLC system (Shimadzu LC-30 AD, model Nexra X2) including liquid delivery unit, column thermostat, detector and autosampler; or Agilent 1200 Binary Pump series HPLC and CTC Autosampler.
(§9) Chromatographic column: Waters XSELECT Hss T3 C18 (2.5 μm, 2.1×50 mm) or […] (5 μm, 2.0×50 mm)
(§10) Mobile phase: • A: water with 0.1% FA (formic acid) (with or without 0.1% ACN (acetonitrile)) • B: acetonitrile with 0.1% FA (formic acid).

A short description of data set [2]: Study on in vivo pharmacokinetics in mice. Conditions: mice, intragastric, 10 mg/kg. More on the design: species or system mouse. The source says:
Example 6 Study on In Vivo Pharmacokinetics in Mice
Solutol HS15 was purchased from BASF, Germany, ethanol (anhydrous) was purchased from Nanjing Chemical Reagent Co., Ltd., physiological saline was purchased from Huayu (Wuxi) Pharmaceutical Co., Ltd., dimethyl sulfoxide (DMSO) and sodium carboxymethyl cellulose 800-1200 (CMC-Na) were purchased from Sinopharm Chemical Reagent Co., Ltd.
Preparation of ethanol/Solutol mixed solution (1:1, v/v): taking an appropriate amount of Solutol HS15 in a centrifuge tube and placing in a 37° C. water bath until dissolved, placing on the bench top to room temperature, taking 1 mL of Solutol in a centrifuge tube containing 1 mL of ethanol and mixing well to obtain the mixed solution.
Taking an appropriate amount of stock solution and placing in a blank centrifuge tube, adding an appropriate amount of ethanol/Solutol mixed solution prepared in advance, vortexing, then adding an appropriate amount of physiological saline, and mixing well until a transparent liquid.
3. Administration to Animals and Sample Collection:
Male ICR mice were purchased from Shanghai Lingchang Biotechnology Co., Ltd. 18 mice were randomly divided into intravenous administration group and intragastric administration group. The mice were fasted overnight before administration. The mice were withheld food but allowed to access water freely within 4 hours after administration, and allowed to freely access food and water after 4 hours. After anesthesia with isoflurane, blood was collected from the retroorbital venous plexus and placing in an centrifuge tube containing anticoagulant, and the centrifuge tube was stored in an box containing wet ice until the plasma was centrifuged.
The plasma samples were pre-treated and then analyzed by liquid chromatography-tandem mass spectrometry (LC-MS/MS), the instrument model was API5500. The analytical chromatographic column was Waters XSELECT HSS T3 C18 column (50×2.1 mm, 2.5 μm). In the mobile phases, deionized water containing 0.1% formic acid and 0.1% acetonitrile was used as the aqueous phase and acetonitrile containing 0.1% formic acid was used as the organic phase. The concentrations of the compound in the samples were determined as follows. Firstly, a standard curve was established, and the peak area ratios of the compound 19 to the internal standard in the standard curve were used as indexes. The theoretical concentrations of compound 19 and the peak area ratios of compound 19 to the internal standard were fitted with a quadratic regression equation to obtain the regression equation. The sample concentrations were calculated by measuring the peak area ratio of the compound of the test sample to the internal standard according to the standard curve.

Data set [3] is described as follows: Rat arthritis model induced by type II collagen (CIA). The data set is classed as in vivo. The conditions noted are these: 4 mg/kg oral once a day, CIA rats. Here is the method: Example 9 Therapeutic Effect of the Compound of the Present Invention on a Rat Arthritis Model Induced by Type II Collagen
An appropriate amount of bovine type II collagen (CII, Chondrex (Redmond, WA, USA), Cat #20021) was weighed and dissolved in 0.1 mole of acetic acid (SPGC Sinopharm Chemical Reagent Co., Ltd (Shanghai, P.R.China), Cat #: 10000218.), which was formulated into a solution with a concentration of 6 mg/mL, stirred at 4° C. overnight, and added with an equal volume of Freund's incomplete adjuvant (Sigma-Aldrich. (St. Louis, MO, USA), Cat #: SLBW0366.), fully emulsified to prepare an emulsion with a CII concentration of 3 mg/mL. […]
The paw volume was measured on day 8 after immunization, and the left and right hind paw volumes (V) were measured every day after the paw volume increase was detected. […]
The area under the curve (AUC) of the average paw volume change is the area under the curve of the arthrosis score change calculated by the trapezoid method, and the calculation formula is: AUCpaw volume=½×(APSd1+APSd2)λ(d2−d1)+½×(APSd2+APSd3)×(d3-d2)+. . . +½×(APSdn+APSd(n-1))×(dn−dn-1)
ED50 is calculated by XLfit software according to the AUC inhibition ratio of the area under the curve of the average paw volume change. […]

A short description of data set [4]: Stability test in liver microsomes (rat). It is filed as in vitro ADME. The conditions noted are these: rat liver microsomes, 1 μM compound, 30 min.
Source text: as §1, §2, §3, §4, §5, §6, §7, §8, §9, §10
(In general: Liver microsomes are vesicles of endoplasmic reticulum, rich in cytochrome P450 enzymes.)

In the case of `C[C@H]1CN(C2COC2)CCN1c1ccc(Nc2cc(-c3ccnc(N4CCn5c(cc6c5CC(C)(C)C6)C4=O)c3CO)cn(C)c2=O)nc1` [GDC-0853, fenebrutinib, reference compound], in data set [1], the “MLM, percentage of remaining compound after 30 minutes of incubation” value is listed as 76.3%. Besides, the T1/2 in data set [2] is given as 1.5 h. In data set [2] (plasma at 8 h), this compound showed a C8 h of 0.143 µg/mL. Also, the “paw volume compared with vehicle control group” value in data set [3] was “significantly reduced”. For the same compound, the “RLM, percentage of remaining compound after 30 minutes of incubation” value in data set [4] amounted to 81.0%.

For the origin of these results see patent US12070457B2, “Substituted pyridines, pyridazines, pyrimidines, and 1,2,3-triazines as bruton's tyrosine kinase inhibitors” (HUTCHISON MEDIPHARMA LIMITED, priority 2020, dated 2024).
